The values that follow come from US10251394B2, “Molecules having pesticidal utility, and intermediates, compositions, and processes, related thereto” (Dow AgroSciences LLC, priority 2016, dated 2019).

For experiment [1], the system named is Beet Armyworm (Spodoptera exigua). The experiment can be described thus: Bioassay on Beet Armyworm (BAW), 128-well diet tray assay. Type of experiment: in vivo. Particulars: Beet Armyworm, Table ABC, read-out: BAW rating. Summed up:
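Percent mortality, averaged over eight wells, was scored after five to seven days at 25° C under 14:10 light-dark. Each well's diet carried 50 μg/cm^2 of test molecule applied in acetone-water (90:10) and dried before one to five second-instar larvae were added.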

Experiment [2] concerns Cabbage Looper (Trichoplusia ni). Kind of experiment: Bioassay on Cabbage Looper (CL), 128-well diet tray assay. Type of experiment: in vivo. Particulars: Cabbage Looper, Table ABC, read-out: CL rating. An outline of the steps: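 Mortality after five to seven days at 25° C (14:10 photoperiod), averaged over eight wells per compound. Diet in each well carried 50 μg/cm^2 of dried test molecule and received one to five second-instar larvae.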

For `O=C(NC1(C(=O)NC2CC(F)(F)C2)CC1)c1ccc(/C(F)=C/C(c2cc(Cl)c(Cl)c(Cl)c2)C(F)(F)F)cc1C(F)(F)F` (stereo not shown) [F101, (Z)—N-(1-((3,3-Difluorocyclobutyl)carbamoyl)cyclopropyl)-4-(1,4,4,4-tetrafluoro-3-(3,4,5-trichlorophenyl)but-1-en-1-yl)-2-(trifluoromethyl)benzamide], the pest or weed control at 50 µg/cm2 in experiment [1] and in experiment [2] was 50 to 100% throughout.

For the compound `O=C(NC1CCCN(CC(F)(F)F)C1=O)c1ccc(/C(F)=C/C(c2cc(Cl)c(Cl)c(Cl)c2)C(F)(F)F)cc1C(F)(F)F` (stereo not shown) [F104, (Z)—N-(2-Oxo-1-(2,2,2-trifluoroethyl)piperidin-3-yl)-4-(1,4,4,4-tetrafluoro-3-(3,4,5-trichlorophenyl)but-1-en-1-yl)-2-(trifluoromethyl)benzamide], the pest or weed control at 50 µg/cm2 in experiment [1] and in experiment [2] was 50 to 100% in each case.

Take `C[C@@H](NC(=O)c1ccc(/C(F)=C/C(c2cc(Cl)cc(Cl)c2)C(F)(F)F)cc1C(F)(F)F)C(=O)NCC(F)(F)F` (stereo partly drawn) [F105, 4-((Z)-3-(3,5-Dichlorophenyl)-1,4,4,4-tetrafluorobut-1-en-1-yl)-N—((R)-1-oxo-1-((2,2,2-trifluoroethyl)amino)propan-2-yl)-2-(trifluoromethyl)benzamide]: the pest or weed control at 50 µg/cm2 in experiment [1] and in experiment [2] was 50 to 100% in each case.

As to `O=C(N[C@@H]1CON(CC(F)(F)F)C1=O)c1ccc(/C(F)=C/C(c2cc(Cl)c(Cl)c(Cl)c2)C(F)(F)F)cc1C(F)(F)F` (stereo partly drawn) [F106, N—((R)-3-Oxo-2-(2,2,2-trifluoroethyl)isoxazolidin-4-yl)-4-((Z)-1,4,4,4-tetrafluoro-3-(3,4,5-trichlorophenyl)but-1-en-1-yl)-2-(trifluoromethyl)benzamide], the pest or weed control at 50 µg/cm2 in experiment [1] and in experiment [2] was 50 to 100% throughout.

In the case of `O=C(CNC(=O)c1ccc(/C(F)=C/C(c2ccc(Br)c(Br)c2)C(F)(F)F)cc1C(F)(F)F)NCC(F)(F)F` (stereo not shown) [F107, (Z)-4-(3-(3,4-Dibromophenyl)-1,4,4,4-tetrafluorobut-1-en-1-yl)-N-(2-oxo-2-((2,2,2-trifluoroethyl)amino)ethyl)-2-(trifluoromethyl)benzamide], the pest or weed control at 50 µg/cm2 in experiment [1] and in experiment [2] was 50 to 100% each time.

Consider `CN(CC(F)(F)F)C(=O)C1(NC(=O)c2ccc(/C(F)=C/C(c3cc(Br)cc(Br)c3)C(F)(F)F)cc2C(F)(F)F)CC1` (stereo not shown) [F108, (Z)-4-(3-(3,5-Dibromophenyl)-1,4,4,4-tetrafluorobut-1-en-1-yl)-N-(1-(methyl(2,2,2-trifluoroethyl)carbamoyl)cyclopropyl)-2-(trifluoromethyl)benzamide], for which the pest or weed control at 50 µg/cm2 in experiment [1] and in experiment [2] was 50 to 100% each time.

`C[C@@H](NC(=O)c1ccc(/C(F)=C/C(c2cc(Cl)cc(Br)c2)C(F)(F)F)cc1C(F)(F)F)C(=O)NCC(F)(F)F` (stereo partly shown) [F109]: the pest or weed control at 50 µg/cm2 in experiment [1] and in experiment [2] was 50 to 100% in each case.

Take `O=C(CNC(=O)c1ccc(/C(F)=C/C(c2cc(Cl)c(Br)c(Cl)c2)C(F)(F)F)cc1C(F)(F)F)NCC(F)(F)F` (stereo not shown) [F110]: the pest or weed control at 50 µg/cm2 in experiment [1] and in experiment [2] was 50 to 100% each time.

For `C=Cc1c(Cl)cc(C(/C=C(\F)c2ccc(C(=O)NC3(C(=O)N(C)CC(F)(F)F)CC3)c(C(F)(F)F)c2)C(F)(F)F)cc1Cl` (stereo not shown) [F111, (Z)-4-(3-(3,5-Dichloro-4-vinylphenyl)-1,4,4,4-tetrafluorobut-1-en-1-yl)-N-(1-(methyl(2,2,2-trifluoroethyl)carbamoyl)cyclopropyl)-2-(trifluoromethyl)benzamide], the pest or weed control at 50 µg/cm2 in experiment [1] and in experiment [2] was 50 to 100% each time.

Regarding `C[C@@H](NC(=O)c1ccc(/C(F)=C/C(c2ccc(Cl)c(Cl)c2)C(C)(F)F)cc1C(F)(F)F)C(=O)NCC(F)(F)F` (stereo partly drawn) [F112, 4-((Z)-3-(3,4-Dichlorophenyl)-1,4,4-trifluoropent-1-en-1-yl)-N—((R)-1-oxo-1-((2,2,2-trifluoroethyl)amino)propan-2-yl)-2-(trifluoromethyl)benzamide], the pest or weed control at 50 µg/cm2 in experiment [1] and in experiment [2] was 50 to 100% in each case.

On to `CN(CC(F)(F)F)C(=O)C1(NC(=O)c2ccc(/C(F)=C/C(c3cc(Cl)c(Br)c(Cl)c3)C(F)(F)F)cc2C(F)(F)F)CC1` (stereo not shown) [F117, (Z)-4-(3-(4-Bromo-3,5-dichlorophenyl)-1,4,4,4-tetrafluorobut-1-en-1-yl)-N-(1-(methyl(2,2,2-trifluoroethyl)carbamoyl)cyclopropyl)-2-(trifluoromethyl)benzamide], for which the pest or weed control at 50 µg/cm2 in experiment [1] and in experiment [2] was 50 to 100% in each case.

With `C[C@@H](NC(=O)c1ccc(/C(F)=C/C(c2ccc(Cl)c(Cl)c2)C(F)(F)F)cc1Br)C(=O)NCC(F)(F)F` (stereo partly drawn) [F123, 2-Bromo-4-((Z)-3-(3,4-dichlorophenyl)-1,4,4,4-tetrafluorobut-1-en-1-yl)-N—((R)-1-oxo-1-((2,2,2-trifluoroethyl)amino)propan-2-yl)benzamide], the pest or weed control at 50 µg/cm2 in experiment [1] and in experiment [2] was 50 to 100% in each case.

With `O=C(CNC(=O)c1ccc(/C(F)=C/C(c2ccc(Cl)c(Cl)c2)C(F)(F)F)cc1Br)NCC(F)(F)F` (stereo not shown) [F124, (Z)-2-Bromo-4-(3-(3,4-dichlorophenyl)-1,4,4,4-tetrafluorobut-1-en-1-yl)-N-(2-oxo-2-((2,2,2-trifluoroethyl)amino)ethyl)benzamide], the pest or weed control at 50 µg/cm2 in experiment [1] and in experiment [2] was 50 to 100% throughout.

As to `O=C(NC1(C(=O)NCC(F)(F)F)CC1)c1ccc(/C(F)=C/C(c2ccc(Cl)c(Cl)c2)C(F)(F)F)cc1Br` (stereo not shown) [F125, (Z)-2-Bromo-4-(3-(3,4-dichlorophenyl)-1,4,4,4-tetrafluorobut-1-en-1-yl)-N-(1-((2,2,2-trifluoroethyl)carbamoyl)cyclopropyl)benzamide], the pest or weed control at 50 µg/cm2 in experiment [1] and in experiment [2] was 50 to 100% each time.

With `CC[C@@H](NC(=O)c1ccc(/C(F)=C/C(c2cc(Cl)c(Cl)c(Cl)c2)C(F)(F)F)cc1C(F)(F)F)C(N)=O` (stereo partly drawn) [F126, N—((R)-1-Amino-1-oxobutan-2-yl)-4-((Z)-1,4,4,4-tetrafluoro-3-(3,4,5-trichlorophenyl)but-1-en-1-yl)-2-(trifluoromethyl)benzamide], the pest or weed control at 50 µg/cm2 in experiment [1] and in experiment [2] was 50 to 100% in each case.

As to `NC(=O)CNC(=O)c1ccc(/C(F)=C/C(c2cc(Cl)c(Cl)c(Cl)c2)C(F)(F)F)cc1C(F)(F)F` (stereo not shown) [F127, (Z)—N-(2-Amino-2-oxoethyl)-4-(1,4,4,4-tetrafluoro-3-(3,4,5-trichlorophenyl)but-1-en-1-yl)-2-(trifluoromethyl)benzamide], the pest or weed control at 50 µg/cm2 in experiment [1] and in experiment [2] was 50 to 100% each time.

Consider `CC(F)(F)C(/C=C(\F)c1ccc(C(=O)NC2(C(=O)NCC(F)(F)F)CC2)c(C(F)(F)F)c1)c1ccc(Cl)c(Cl)c1` (stereo not shown) [F128, (Z)-4-(3-(3,4-Dichlorophenyl)-1,4,4-trifluoropent-1-en-1-yl)-N-(1-((2,2,2-trifluoroethyl)carbamoyl)cyclopropyl)-2-(trifluoromethyl)benzamide], for which the pest or weed control at 50 µg/cm2 in experiment [1] and in experiment [2] was 50 to 100% in each case.

`CC(F)(F)C(/C=C(\F)c1ccc(C(=O)NCC(=O)NCC(F)(F)F)c(C(F)(F)F)c1)c1ccc(Cl)c(Cl)c1` (stereo not shown) [F129, (Z)-4-(3-(3,4-Dichlorophenyl)-1,4,4-trifluoropent-1-en-1-yl)-N-(2-oxo-2-((2,2,2-trifluoroethyl)amino)ethyl)-2-(trifluoromethyl)benzamide]: the pest or weed control at 50 µg/cm2 in experiment [1] and in experiment [2] was 50 to 100% throughout.

`C[C@@H](NC(=O)c1ccc(/C(F)=C/C(c2cc(Cl)c(Cl)c(Cl)c2)C(F)(F)F)cc1C(F)(F)F)C(=O)/C=C/CC(F)(F)F` (stereo partly shown) [F140]: the pest or weed control at 50 µg/cm2 in experiment [1] and in experiment [2] was 50 to 100% each time.

`C=C(C)c1c(Cl)cc(C(/C=C(\F)c2ccc(C(=O)N[C@H](C)C(=O)NCC(F)(F)F)c(C(F)(F)F)c2)C(F)(F)F)cc1Cl` (stereo partly drawn) [F148, 4-((Z)-3-(3,5-Dichloro-4-(prop-1-en-2-yl)phenyl)-1,4,4,4-tetrafluorobut-1-en-1-yl)-N—((R)-1-oxo-1-((2,2,2-trifluoroethyl)amino)propan-2-yl)-2-(trifluoromethyl)benzamide]: the pest or weed control at 50 µg/cm2 in experiment [1] and in experiment [2] was 50 to 100% in each case.

Consider `O=C(N[C@@H]1CON(CC(F)(F)F)C1=O)c1ccc(/C(F)=C/C(c2ccc(F)c(C(F)(F)F)c2)C(F)(F)F)cc1C(F)(F)F` (stereo partly drawn) [F150, N—((R)-3-Oxo-2-(2,2,2-trifluoroethyl)isoxazolidin-4-yl)-4-((2)-1,4,4,4-tetrafluoro-3-(4-fluoro-3-(trifluoromethyl)phenyl)but-1-en-1-yl)-2-(trifluoromethyl)benzamide], for which the pest or weed control at 50 µg/cm2 in experiment [1] and in experiment [2] was 50 to 100% in each case.

As for `C[C@@H](NC(=O)c1ccc(/C(F)=C/C(c2cc(F)c(F)c(Cl)c2)C(F)(F)F)cc1C(F)(F)F)C(=O)NCC(F)(F)F` (stereo partly drawn) [F154, 4-((Z)-3-(3-Chloro-4,5-difluorophenyl)-1,4,4,4-tetrafluorobut-1-en-1-yl)-N—((R)-1-oxo-1-((2,2,2-trifluoroethyl)amino)propan-2-yl)-2-(trifluoromethyl)benzamide], the pest or weed control at 50 µg/cm2 in experiment [1] and in experiment [2] was 50 to 100% each time.

For `COc1ccc(C(/C=C(\F)c2ccc(C(=O)NCC(=O)NCC(F)(F)F)c(C(F)(F)F)c2)C(F)(F)F)cc1Cl` (stereo not shown) [F158, (Z)-4-(3-(3-Chloro-4-methoxyphenyl)-1,4,4,4-tetrafluorobut-1-en-1-yl)-N-(2-oxo-2-((2,2,2-trifluoroethyl)amino)ethyl)-2-(trifluoromethyl)benzamide], the pest or weed control at 50 µg/cm2 in experiment [1] and in experiment [2] was 50 to 100% throughout.
